Holding throughout (assay type): in vivo, rat
Data set [1] deals with spontaneously hypertensive rats (SHR). Briefly: Chronic 60-day oral treatment: blood pressure and heart rate by tail-cuff plethysmography. Conditions: 50 mg/kg/day p.o., 60 days, vs SHR vehicle. On the procedure: (§1) Before starting any treatment, animals were conditioned for one week to minimize stress-related variability in BP and HR measurements. SHRs were randomly assigned to three experimental groups: Group 1 (SHR + Vehicle): Received saline solution (0.1 mL/100 g, p.o.); Group 2 (SHR + LIN): Treated with (-)-linalool (50 mg/kg/day, p.o.); and Group 3 (SHR + LIN/β-CD): Treated with the LIN/β-cyclodextrin inclusion complex (50 mg/kg/day, p.o.). An additional control group of normotensive Wistar rats (Group 4: Wistar + Vehicle) received saline under the same dosing protocol to serve as a baseline.
All treatments were administered orally once daily (between 08:00 and 12:00 h) for a period of 60 days, and cardiovascular assessments were performed with all groups in the afternoon (between 12:00 and 18:00 h), approximately 60 min post-administration. BP and heart rate were measured every five days throughout the treatment period using the tail-cuff plethysmography method (Insight® V2.11, São Paulo, Brazil). Systolic and diastolic blood pressures were measured in triplicate for each animal, and the average of these values was used for data analysis and graphical representation.

The test system is the same in data set [2]. The data set is described as follows: Acute intravenous effects on blood pressure and heart rate. Conditions: i.v. 50 mg/kg, n = 5, mean ± S.E.M. The source says: This protocol aimed to evaluate the acute hemodynamic effects of LIN, administered intravenously (i.v.), on blood pressure (BP) and heart rate (HR) in spontaneously hypertensive rats (SHR) and normotensive Wistar rats. Animals were anesthetized with ketamine and xylazine (Cristália), and following trichotomy of the iliac region, polyethylene (PE) catheters were implanted into the femoral artery and vein.
The catheters consisted of PE-10 segments (internal/external diameter: 0.28/0.61 mm) connected to PE-50 catheter (internal/external diameter: 0.58/0.96 mm). To prevent catheter blockage during the hemodynamic recordings, the arterial and venous catheters were implanted pre-filled with a sterile saline–heparin solution (heparin: 100 UI). […]
Following a 24 h recovery period, baseline physiological parameters, including systolic BP (SBP), diastolic BP (DBP), and heart rate, were recorded. BP was continuously monitored via the arterial catheter connected to a pressure transducer (ADInstruments, São Paulo, Brazil). The signal was amplified and digitized at 1 kHz using a PowerLab 8/35 data acquisition system and analyzed with LabChart 8 Pro software (ADInstruments, São Paulo, Brazil). Once cardiovascular parameters stabilized, SBP, DBP, and HR were recorded as baseline control values. […]

The test system is the same in data set [3]. Briefly: Histology of left ventricle and aorta (HE, Picrosirius Red) after 60-day treatment. The conditions noted are these: 50 mg/kg/day p.o., 60 days. As to the method:
After 60 days of treatment period, Wistar and SHRs were euthanized in a carbon dioxide (CO2) chamber. Hearts were carefully excised, and surrounding adipose tissue and vascular structures were meticulously removed. Each heart was weighed using an analytical balance, and the cardiac mass index was calculated by normalizing the heart weight to the total body weight of the animal. A transverse cut was then made, and the left and right ventricles, and thoracic aortas. Both tissues were fixed in 4% formaldehyde for histological processing.
The hearts and thoracic aortas were fixed in 4% buffered formaldehyde (0.1 M sodium phosphate buffer, pH 7.4), followed by washing in distilled water. Tissue dehydration was carried out in a graded ethanol series of increasing concentrations, ending with absolute ethanol. Samples were then cleared in xylene, embedded in paraffin, and sectioned using a microtome (RM2125RT, Leica®, Wetzlar, Germany) to obtain serial 5 μm sections. […]
Histological evaluation was conducted in a blinded manner. […] Parameters assessed included the presence or absence of inflammatory infiltrates, hemorrhagic areas, and structural alterations such as decreased cardiomyocyte volume, disruption of muscle fiber continuity, loss of transverse striations, sarcoplasmic granulation, contraction bands, and nuclear changes indicative of tissue injury. […]

The nature of data set [4]: Body weight progression during 60-day treatment. Conditions: 50 mg/kg/day p.o., 60 days. As to the method: as §1

From paper PMC12844744, “Complexed Linalool with Beta-Cyclodextrin Improve Antihypertensive Activity: Pharmacokinetic and Pharmacodynamic Insights” (Pharmaceuticals, 2025) come the findings set out here.

As to `C=CC(C)(O)CCC=C(C)C` (stereo not drawn) [LIN, 3,7-dimethyl-1,6-octadien-3-ol], in data set [1], the “Effect on arterial pressure, chronic treatment” value was “significantly reduced arterial pressure”. In data set [2], the “%HR, percent change in heart rate relative to baseline” value is recorded as −54.54 ± 4.84% and the “%MAP, percent change in mean arterial pressure relative to baseline” value was −56.64 ± 5.05%. In addition, the Aortic histology entry in data set [3] (aorta) is “no signs of vascular remodeling”. Moreover, the “Myocardial histology (hematoxylin-eosin)” value in data set [3] (left ventricle) was “preserved myocardial morphology”. The Body weight progression result in data set [4] was “no significant changes”.
